Series [1] is described as follows: Metabolic stability in liver microsomes, rat. Type of series: in vitro ADME. The text has this:
(§1) In in vitro studies using liver microsomes, the metabolic stability of tenalisib followed the rank order of rat>human>dog>monkey>mouse (Table 3).

Series [2] is described as follows: Metabolic stability in liver microsomes, human. Type of series: in vitro ADME.
Excerpt: as §1
On the technique in general: Liver microsomes are vesicles of endoplasmic reticulum, rich in cytochrome P450 enzymes.

In series [3] the target is SIK3 (Homo sapiens, UniProt Q9Y2K2). The series can be described thus: SIK3 inhibition assay (enzymatic radiometric). It counts as biochemical. Particulars: 10 μM ATP.
Series [4] can be described thus: Metabolic stability in liver microsomes, dog. Type of series: in vitro ADME.
Excerpt: as §1

The subject of series [5] is SK-OV-3 ovarian cancer cell line. The series can be described thus: Anti-proliferative effect of taxol and Compound (M) (Example 10), SK-OV-3. Type of series: cell-based.
The subject of series [6] is MCF-7 breast cancer cell lines. The series can be described thus: cells. The following applies: Homo sapiens, MCF7, 72 h, read-out: growth inhibition.
For series [7], the system named is MCF-7 cell lines. The series can be described thus: Cell proliferation (MTT), Compound M and olaparib, MCF-7. It counts as cell-based. Particulars: Homo sapiens, MCF7, olaparib alone (5 μM, FIG. 5), 72 h, read-out: growth inhibition.
Experimental: • MCF-7 cells were plated in MEM+10% FBS complete media at pre-determined density in a 96-well plate. • Cells were exposed to either DMSO (control) alone, Compound M alone, olaparib alone, or a combination of Compound M and olaparib. • Cells were incubated for 72 h in presence of the inhibitors. • MTT reaction was performed to determine the cell viability at the end of the treatment period and absorbance was measured at wavelength 560 and 640 nM. • % cell growth inhibitions were calculated, and Tukey's analysis was performed using GraphPad Prism to compare the treated groups.
In series [8] the test system is OVCAR-3 ovarian cancer cell lines. The series can be described thus: Anti-proliferative activity with PARP inhibitors, OVCAR-3. It counts as cell-based. The following applies: Homo sapiens, read-out: growth inhibition.
In series [9] the test system is MCF-7 breast cancer cell line. The series can be described thus: Anti-proliferative effect of taxol (Example 10), MCF-7. Type of series: cell-based. The following applies: taxol alone (Example 10).
For series [10], the system named is ZR.75.1 breast cancer cell line. The series can be described thus: Anti-proliferative effect of taxol (Example 10), ZR.75.1. It counts as cell-based. The following applies: taxol alone (Example 10).
The subject of series [11] is MDA-MB-231 breast cancer cell line. The series can be described thus: Anti-proliferative effect of taxol (Example 10), MDA-MB-231. It counts as cell-based. The following applies: taxol alone (Example 10).
Series [12] deals with MDA-MB-231 breast cancer cell lines. The series can be described thus: cells. The following applies: Homo sapiens, MDA-MB-231, 72 h, read-out: growth inhibition.
For series [13], the system named is SK-OV-3 ovarian cancer cell lines. The series can be described thus: Anti-proliferative activity with PARP inhibitors, SK-OV-3. Particulars: Homo sapiens, single agent talazoparib (3 μM, FIG. 6B), read-out: growth inhibition. It counts as cell-based.

Broadly, the IC50 is the midpoint of a concentration-inhibition curve. Lower therefore signals greater potency. A word on the inhibition: it is how much of the control response was suppressed.

Chain of SIK3 (Q9Y2K2 whole entry): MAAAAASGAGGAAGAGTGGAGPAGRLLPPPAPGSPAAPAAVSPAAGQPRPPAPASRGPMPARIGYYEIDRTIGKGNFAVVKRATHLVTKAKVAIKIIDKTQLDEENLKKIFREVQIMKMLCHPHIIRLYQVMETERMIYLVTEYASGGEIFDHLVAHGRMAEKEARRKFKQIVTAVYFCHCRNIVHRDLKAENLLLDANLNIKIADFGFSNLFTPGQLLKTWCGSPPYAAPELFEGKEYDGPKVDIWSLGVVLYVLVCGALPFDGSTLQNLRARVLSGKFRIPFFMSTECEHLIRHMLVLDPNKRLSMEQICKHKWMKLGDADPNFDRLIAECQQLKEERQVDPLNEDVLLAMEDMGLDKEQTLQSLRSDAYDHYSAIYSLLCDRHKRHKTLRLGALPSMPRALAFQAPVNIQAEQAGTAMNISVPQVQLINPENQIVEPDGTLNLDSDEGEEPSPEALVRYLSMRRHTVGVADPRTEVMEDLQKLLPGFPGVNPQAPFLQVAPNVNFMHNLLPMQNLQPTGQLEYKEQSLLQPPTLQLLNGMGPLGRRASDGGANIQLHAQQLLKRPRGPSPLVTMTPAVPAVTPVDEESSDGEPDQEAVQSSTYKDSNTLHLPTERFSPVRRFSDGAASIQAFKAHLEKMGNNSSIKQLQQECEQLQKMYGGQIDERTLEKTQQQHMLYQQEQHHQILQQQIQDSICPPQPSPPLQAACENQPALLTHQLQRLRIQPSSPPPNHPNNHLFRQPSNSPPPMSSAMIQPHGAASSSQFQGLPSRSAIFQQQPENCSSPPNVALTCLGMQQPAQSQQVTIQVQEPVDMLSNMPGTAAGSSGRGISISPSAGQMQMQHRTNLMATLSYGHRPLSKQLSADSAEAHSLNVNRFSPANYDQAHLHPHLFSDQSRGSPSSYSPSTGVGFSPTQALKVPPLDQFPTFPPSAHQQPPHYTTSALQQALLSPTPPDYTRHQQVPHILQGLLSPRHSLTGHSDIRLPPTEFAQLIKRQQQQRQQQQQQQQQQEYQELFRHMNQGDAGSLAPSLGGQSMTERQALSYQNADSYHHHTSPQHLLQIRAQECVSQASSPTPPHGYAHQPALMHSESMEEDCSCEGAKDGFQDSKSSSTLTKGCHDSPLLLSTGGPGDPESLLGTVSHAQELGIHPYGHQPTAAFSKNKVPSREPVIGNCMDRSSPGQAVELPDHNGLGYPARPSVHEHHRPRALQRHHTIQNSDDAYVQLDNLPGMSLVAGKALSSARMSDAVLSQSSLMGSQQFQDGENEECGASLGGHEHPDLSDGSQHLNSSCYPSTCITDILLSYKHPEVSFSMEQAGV

On to `CC[C@H](Nc1ncnc2[nH]c(O)nc12)c1oc2ccccc2c(=O)c1-c1cccc(F)c1` [Compound M, (S)-3-(3-fluorophenyl)-2-(1-((8-hydroxy-9H-purin-6-yl)amino)propyl)-4H-chromen-4-one], for which the “% Metabolic Stability” value in series [1] is listed as 58.0%; in series [2], 58.5%; in [4], 67.6%. In series [3], the IC50 amounted to 237 nM. Besides, in series [3], the “selectivity over the SIK1 and SIK2 isoforms” value is given as “Selective over”. The “potentiation of the activity of taxol” value in series [5] (Compound (M) 3 μM added to taxol (6 nM, FIG. 7)) is on record as “potentiated”.
`COc1cccc2c1C(=O)c1c(O)c3c(c(O)c1C2=O)C[C@@](O)(C(=O)CO)C[C@@H]3O[C@H]1C[C@H](N)[C@H](O)[C@H](C)O1` [Doxorubicin]: the inhibition at 0.05 µM in series [6] is 42.8%.
`O=C(c1cc(Cc2n[nH]c(=O)c3ccccc23)ccc1F)N1CCN(C(=O)C2CC2)CC1` [Olaparib]: in [7], the inhibition at 5 µM came to 43.2%. The inhibition at 3 µM in series [8] (olaparib alone (3 μM, FIG. 6C)) came out at 29.3%.
As to `CC(=O)O[C@H]1C(=O)[C@@]2(C)[C@H]([C@H](OC(=O)c3ccccc3)[C@]3(O)C[C@H](OC(=O)[C@H](O)[C@@H](NC(=O)c4ccccc4)c4ccccc4)C(C)=C1C3(C)C)[C@]1(OC(C)=O)CO[C@@H]1C[C@@H]2O` [Taxol], the inhibition at 0.003 µM in series [6] amounted to 28.8%; in [12], 34.5%. The growth inhibition is recorded as 17.3% in series [9], 25.8% in [10] and 44.4% in series [11]. In addition, the inhibition at 0.006 µM in series [5] (Homo sapiens, taxol alone (6 nM, FIG. 7), read-out: growth inhibition) amounted to 59.2%.
On to `Cn1ncnc1[C@H]1c2n[nH]c(=O)c3cc(F)cc(c23)N[C@@H]1c1ccc(F)cc1` [talazoparib], for which the inhibition at 3 µM in [13] was 50%. Moreover, the inhibition at 0.1 µM in [8] (single agent talazoparib (0.1 μM, FIG. 6A)) stood at 40.2%.

These data come from patent US20250241923A1, “A DUAL SELECTIVE PI3K DELTA AND GAMMA INHIBITORS AND/OR A SALT-INDUCIBLE KINASE 3 INHIBITOR FOR TREATING SOLID TUMORS” (Incozen Therapeutics Pvt. Ltd, priority 2022, published 2025).
